The source of these data is ChEMBL document CHEMBL1201862, “PubChem BioAssay data set” (2004).

Broadly, the EC50 is the concentration needed to bring the measured effect to its halfway point. As usually defined, the AC50 is the midpoint of the concentration-response curve, whichever way the signal moves. By IC50 is commonly meant the midpoint of a concentration-inhibition curve. In general, CC50 refers to the concentration giving 50% cytotoxicity.

Data set [1] deals with Sphingosine 1-phosphate receptor 2 (Homo sapiens, UniProt O95136). The data set is described as follows: Dose Response Cell Based Assay for Agonists of the S1P2 Receptor. [Related pubchem assays: 729, 736, 843 ]. In kind it is functional.
Data set [2] has as its system HeLa. The data set can be described thus: ATP-based viability loss in HeLa cells – cell-based, CellTiter-Glo luminescence, cherry-pick samples, cytotoxicity control for MITF activator project, dose response (AID 540259). Format: functional. Particulars: Homo sapiens.
The target of data set [3] is Induced myeloid leukemia cell differentiation protein Mcl-1 (Homo sapiens, UniProt Q07820). Format: functional.
Data set [4] concerns the target T1, Voltage-gated N-type calcium channel alpha-1B subunit/Amyloid beta A4 precursor protein-binding family A member 1 (Homo sapiens, UniProt Q00975+Q02410). In kind it is protein assay.
The target in data set [5] is T1, Voltage-gated N-type calcium channel alpha-1B subunit/Amyloid beta A4 precursor protein-binding family A member 1. Format: protein assay. This is another data set of the same source.
The target of data set [6] is 5-hydroxytryptamine receptor 5A (Homo sapiens, UniProt P47898). The data set can be described thus: Counterscreen for agonists of OPRM1-OPRD1 heterodimerization: luminescence-based cell-based high throughput dose response assay to identify agonists of 5-hydroxytryptamine (serotonin) 5A receptor (HTR5A). [Related pubchem assays (depositor defined):AID504326, AID504355, AID504692, AID504904, AID504905]. Format: functional.

In data set [7] the target is Delta-type opioid receptor (Homo sapiens, UniProt P41143). The data set can be described thus: Counterscreen for agonists of heterodimerization of the mu 1 (OPRM1) and delta 1 (OPRD1) opioid receptors: Luminescence-based cell-based high throughput dose response assay to identify agonists of OPRD1 homodimerization. [Related pubchem assays (depositor defined):AID504326, AID504355, AID504692, AID504904, AID504905]. Format: functional.

Data set [8] has as its target Mu-type opioid receptor (Homo sapiens, UniProt P35372). The data set is described as follows: Counterscreen for agonists of heterodimerization of the mu 1 (OPRM1) and delta 1 (OPRD1) opioid receptors: Luminescence-based cell-based high throughput dose response assay to identify agonists of OPRM1 homodimerization. In kind it is functional.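 Note: U2OS cells expressing OPRM1 and beta-arrestin as split beta-galactosidase partners.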
Data set [9] deals with Escherichia coli. The data set can be described thus: microbe, parasite or virus in culture.
Data set [10] has as its system Streptococcus. The data set can be described thus: GAS UMAA2166 growth inhibition – luminescence, BacTiterGlo, counter-screen for streptokinase expression inhibitor project, dose response (AID 1915).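 Note: potency for reduction of bacterial viability or growth.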 In kind it is functional, organism-based. Background: The purpose of a counterscreen is to sort out artefacts and off-target activity.
Data set [11] relates to Streptococcus sp. 'group A'. The data set is described as follows: Streptococcus pyogenes SK(-)GAS viability under kanamycin – luminescence, BacTiterGlo, confirmation, counter-screen for streptokinase expression inhibitor project, dose response (AID 1900). Format: functional, organism-based.
Data set [12] deals with DNA damage-inducible transcript 3 protein (Mus musculus, UniProt P35639). In kind it is functional, Cricetulus griseus.
DNA damage-inducible transcript 3 protein, sequence (P35639 whole entry): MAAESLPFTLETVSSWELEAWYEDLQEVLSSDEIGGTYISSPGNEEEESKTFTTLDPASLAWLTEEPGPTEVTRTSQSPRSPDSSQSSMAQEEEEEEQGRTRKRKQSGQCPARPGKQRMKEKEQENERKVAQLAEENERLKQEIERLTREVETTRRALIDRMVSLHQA
In data set [13] the target is Intestinal-type alkaline phosphatase (Mus musculus, UniProt P24822). The data set is described as follows: PubChem AID 488785. In kind it is functional.
The target in data set [14] is Intestinal-type alkaline phosphatase (Homo sapiens, UniProt P09923). The data set can be described thus: inhibition of human intestinal alkaline phosphatase – biochemical, dose response (AID 488876). Format: functional.
Data set [15] has as its target T2, Alkaline phosphatase, tissue-nonspecific isozyme (Homo sapiens, UniProt P05186).
T2 sequence (P05186 whole entry): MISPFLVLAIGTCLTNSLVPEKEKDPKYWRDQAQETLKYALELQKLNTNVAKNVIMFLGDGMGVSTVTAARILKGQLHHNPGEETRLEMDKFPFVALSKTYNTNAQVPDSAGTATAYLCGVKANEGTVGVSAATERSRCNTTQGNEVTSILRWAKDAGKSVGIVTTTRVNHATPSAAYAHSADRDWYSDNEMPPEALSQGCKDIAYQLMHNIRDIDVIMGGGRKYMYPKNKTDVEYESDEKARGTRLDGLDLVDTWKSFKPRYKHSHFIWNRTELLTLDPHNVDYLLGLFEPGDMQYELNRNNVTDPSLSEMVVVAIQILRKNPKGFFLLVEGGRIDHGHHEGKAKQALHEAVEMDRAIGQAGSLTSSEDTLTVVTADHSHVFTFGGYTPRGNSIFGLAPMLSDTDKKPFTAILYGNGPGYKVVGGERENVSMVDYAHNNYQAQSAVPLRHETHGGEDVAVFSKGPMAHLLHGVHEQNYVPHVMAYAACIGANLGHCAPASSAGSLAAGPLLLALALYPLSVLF
The data set can be described thus: TNAP enzyme inhibition by screening hits, dose response, selectivity assay for mouse IAP inhibitor project, biochemical, human TNAP, uHTS hits (AID 488906). In kind it is functional.

In data set [16] the target is Cytochrome P450 2C19 (Homo sapiens, UniProt P33261). The data set can be described thus: Cytochrome panel assay with activity outcomes. Panel member name: p450-cyp2c19 Compounds with AC50 equal or less than 10 uM are considered active. Format: functional.
The target of data set [17] is T3, Cytochrome P450 3A4 (Homo sapiens, UniProt P08684).
T3 sequence (P08684 whole entry): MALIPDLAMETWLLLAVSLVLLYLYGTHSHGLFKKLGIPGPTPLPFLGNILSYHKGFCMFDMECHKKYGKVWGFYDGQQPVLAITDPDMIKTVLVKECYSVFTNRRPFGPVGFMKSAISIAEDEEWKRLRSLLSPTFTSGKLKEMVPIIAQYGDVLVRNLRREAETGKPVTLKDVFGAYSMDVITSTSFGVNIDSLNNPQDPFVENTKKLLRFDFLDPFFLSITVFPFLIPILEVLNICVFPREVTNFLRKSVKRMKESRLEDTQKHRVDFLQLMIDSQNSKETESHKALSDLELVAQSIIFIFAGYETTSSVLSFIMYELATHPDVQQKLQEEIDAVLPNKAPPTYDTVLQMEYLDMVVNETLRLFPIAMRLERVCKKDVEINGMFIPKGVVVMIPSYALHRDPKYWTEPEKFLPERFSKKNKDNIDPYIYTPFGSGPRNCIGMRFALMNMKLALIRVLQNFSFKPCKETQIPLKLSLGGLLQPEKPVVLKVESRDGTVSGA
Data set [18] addresses CAAX prenyl protease 2 (Saccharomyces cerevisiae S288c, UniProt Q03530). Format: biochemical.
For data set [19], the target named is CAAX prenyl protease 2 (Homo sapiens, UniProt Q9Y256). The data set can be described thus: inhibition of Ras-converting CAAX protease Rce1 – biochemical, yeast membranes, quenched-peptide fluorescence, cherry-pick, dose response (AID 588849).
The test system of data set [20] is HEK293. The data set can be described thus: cells. The following applies: Homo sapiens.
For data set [21], the system named is HEK293. The data set can be described thus: cells. Particulars: Homo sapiens. This is another data set of the same source.
In data set [22] the target is Coagulation factor XII (Homo sapiens, UniProt P00748). Format: functional.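 Note: activated factor XIIa alpha cleaving a fluorogenic AMC peptide substrate; inhibitor potency from loss of enzyme activity.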
For data set [23], the target named is Glucose-6-phosphate 1-dehydrogenase (Homo sapiens, UniProt P11413). The data set can be described thus: inhibition of Homo sapiens G6PD, dose series – biochemical, fluorescence, selectivity assay for P. falciparum G6PD inhibitor project, dose response (AID 504792). Format: functional.
Data set [24] concerns the target Lysine-specific demethylase 4A (Homo sapiens, UniProt O75164). The data set is described as follows: inhibition of JMJD2A H3K9me3 demethylation – biochemical, DELFIA europium, cherry-picked samples, selectivity assay for GASC-1 inhibitor project, dose response (AID 488840).
Data set [25] deals with Vero. The data set can be described thus: cells. In kind it is functional. Particulars: Chlorocebus sabaeus.
For data set [26], the target named is G-protein coupled receptor 55 (Homo sapiens, UniProt Q9Y2T6). The data set is described as follows: inhibition of LPI-stimulated GPR55 beta-arrestin translocation – imaging, U2OS, beta-arrestin-GFP, LPI agonist, primary screen (AID 2013).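 Note: antagonist potency measured as reduced agonist-driven arrestin aggregation.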 Format: functional.
Data set [27] deals with Large T antigen (Simian virus 40, UniProt P03070). In kind it is functional, Betapolyomavirus macacae.
For data set [28], the system named is H4. The data set is described as follows: Luminescence Cell-Based Dose Response HTS to Identify Activators of 5'UTR Stem-Loop Driven Prion Protein mRNA Translation in H4 Neuroglioblastoma Cells. [Related pubchem assays: 1829 (Project Summary), 1814 (Primary HTS)]. Format: functional. The following applies: Homo sapiens.
The test system of data set [29] is Escherichia coli. The data set can be described thus: microbe, parasite or virus in culture. The source holds these as a separate data set.
The target in data set [30] is Peroxisome proliferator-activated receptor gamma/Nuclear receptor coactivator 1 (Homo sapiens, UniProt P37231). Format: functional.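 Note: agonist potency as compounds enhance coactivator SRC-1 recruitment to PPARgamma.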
The target in data set [31] is Peroxisome proliferator-activated receptor gamma/Nuclear receptor coactivator 3 (Homo sapiens, UniProt P37231). Format: functional.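 Note: agonist potency for raising coactivator recruitment to the receptor.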
Data set [32] has as its target Peroxisome proliferator-activated receptor gamma/Nuclear receptor coactivator 2 (Homo sapiens, UniProt P37231). In kind it is functional.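 Note: agonist potency for raising coactivator recruitment to the receptor.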
Data set [33] is described as follows: NIH3T3 cell viability loss – ATP luminescence, mouse fibroblasts, counter-screen, dose response (AID 2010).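 Note: cells exposed to compound for about 90 hours before reading.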 Format: functional, cell-based.
A short description of data set [34]: Trypanosoma cruzi growth suppression in host cells – NIH3T3 host cells, beta-gal luminescence, confirmation (AID 2044).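 Note: intracellular parasites grown in NIH/3T3 mouse fibroblasts as host cells; luminescent beta-galactosidase reporter signal from transgenic T. cruzi replicating inside host cells; inhibitors lower the luminescence signal.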 Format: functional, cell-based.
In data set [35] the target is T3, Cytochrome P450 3A4. The source holds these as a separate data set.

The source made the active and inactive calls.

T1 sequence (Q00975 whole entry): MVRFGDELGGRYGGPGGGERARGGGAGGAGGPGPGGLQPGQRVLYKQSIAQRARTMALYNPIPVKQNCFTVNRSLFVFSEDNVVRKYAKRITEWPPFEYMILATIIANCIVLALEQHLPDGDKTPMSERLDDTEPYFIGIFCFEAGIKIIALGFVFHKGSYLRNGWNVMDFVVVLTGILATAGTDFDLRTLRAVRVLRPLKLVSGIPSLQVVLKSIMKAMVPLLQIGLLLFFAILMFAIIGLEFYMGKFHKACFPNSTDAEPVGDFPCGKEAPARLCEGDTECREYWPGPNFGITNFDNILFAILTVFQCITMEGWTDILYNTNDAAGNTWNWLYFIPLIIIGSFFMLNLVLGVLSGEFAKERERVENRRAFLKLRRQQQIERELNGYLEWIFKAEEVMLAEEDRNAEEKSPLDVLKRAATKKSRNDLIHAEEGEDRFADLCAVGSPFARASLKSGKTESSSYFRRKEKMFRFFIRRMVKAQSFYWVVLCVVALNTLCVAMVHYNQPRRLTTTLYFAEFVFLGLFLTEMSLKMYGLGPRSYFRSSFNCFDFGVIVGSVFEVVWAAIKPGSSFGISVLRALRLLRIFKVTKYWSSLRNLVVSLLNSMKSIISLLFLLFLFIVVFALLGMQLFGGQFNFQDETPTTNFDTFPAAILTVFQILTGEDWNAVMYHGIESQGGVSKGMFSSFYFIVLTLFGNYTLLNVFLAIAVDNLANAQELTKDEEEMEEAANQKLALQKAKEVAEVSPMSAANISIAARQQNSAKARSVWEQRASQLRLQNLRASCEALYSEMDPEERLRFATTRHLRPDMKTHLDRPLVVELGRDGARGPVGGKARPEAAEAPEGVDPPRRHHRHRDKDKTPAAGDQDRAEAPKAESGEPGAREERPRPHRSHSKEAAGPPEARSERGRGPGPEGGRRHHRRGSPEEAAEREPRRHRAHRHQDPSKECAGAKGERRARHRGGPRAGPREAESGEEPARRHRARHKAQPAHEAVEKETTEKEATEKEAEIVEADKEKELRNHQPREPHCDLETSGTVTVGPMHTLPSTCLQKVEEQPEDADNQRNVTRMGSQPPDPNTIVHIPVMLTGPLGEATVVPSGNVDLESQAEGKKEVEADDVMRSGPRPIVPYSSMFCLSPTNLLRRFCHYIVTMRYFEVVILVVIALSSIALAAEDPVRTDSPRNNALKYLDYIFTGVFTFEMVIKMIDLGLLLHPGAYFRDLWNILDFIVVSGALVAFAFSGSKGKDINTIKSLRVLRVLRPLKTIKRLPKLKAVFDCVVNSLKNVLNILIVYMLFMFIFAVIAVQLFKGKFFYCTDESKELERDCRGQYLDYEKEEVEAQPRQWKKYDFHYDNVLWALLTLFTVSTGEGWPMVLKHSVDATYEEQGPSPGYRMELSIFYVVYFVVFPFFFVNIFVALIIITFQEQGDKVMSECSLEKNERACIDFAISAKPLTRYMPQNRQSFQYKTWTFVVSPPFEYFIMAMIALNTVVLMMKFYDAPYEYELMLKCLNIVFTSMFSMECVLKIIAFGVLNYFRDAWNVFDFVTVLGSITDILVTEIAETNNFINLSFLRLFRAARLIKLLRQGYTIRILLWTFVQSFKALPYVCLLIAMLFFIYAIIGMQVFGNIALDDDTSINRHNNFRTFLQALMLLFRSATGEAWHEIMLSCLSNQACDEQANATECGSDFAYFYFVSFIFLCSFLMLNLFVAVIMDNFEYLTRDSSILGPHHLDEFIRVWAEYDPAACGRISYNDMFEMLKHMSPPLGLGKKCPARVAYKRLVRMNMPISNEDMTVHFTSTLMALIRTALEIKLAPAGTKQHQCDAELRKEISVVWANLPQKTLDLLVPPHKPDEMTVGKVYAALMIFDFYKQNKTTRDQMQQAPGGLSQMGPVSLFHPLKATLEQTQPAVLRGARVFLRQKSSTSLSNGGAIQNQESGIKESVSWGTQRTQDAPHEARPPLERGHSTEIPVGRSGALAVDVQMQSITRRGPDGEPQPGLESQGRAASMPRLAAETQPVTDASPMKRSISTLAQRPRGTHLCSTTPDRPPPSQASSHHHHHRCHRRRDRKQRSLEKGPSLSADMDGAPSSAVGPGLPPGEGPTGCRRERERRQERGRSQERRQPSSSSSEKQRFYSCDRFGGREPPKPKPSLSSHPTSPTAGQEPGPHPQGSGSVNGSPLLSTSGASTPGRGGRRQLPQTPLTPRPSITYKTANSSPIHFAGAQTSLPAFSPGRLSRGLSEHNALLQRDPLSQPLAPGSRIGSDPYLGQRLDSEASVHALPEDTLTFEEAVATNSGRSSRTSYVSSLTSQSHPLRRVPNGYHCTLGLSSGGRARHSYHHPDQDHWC
T1 sequence (Q02410 whole entry): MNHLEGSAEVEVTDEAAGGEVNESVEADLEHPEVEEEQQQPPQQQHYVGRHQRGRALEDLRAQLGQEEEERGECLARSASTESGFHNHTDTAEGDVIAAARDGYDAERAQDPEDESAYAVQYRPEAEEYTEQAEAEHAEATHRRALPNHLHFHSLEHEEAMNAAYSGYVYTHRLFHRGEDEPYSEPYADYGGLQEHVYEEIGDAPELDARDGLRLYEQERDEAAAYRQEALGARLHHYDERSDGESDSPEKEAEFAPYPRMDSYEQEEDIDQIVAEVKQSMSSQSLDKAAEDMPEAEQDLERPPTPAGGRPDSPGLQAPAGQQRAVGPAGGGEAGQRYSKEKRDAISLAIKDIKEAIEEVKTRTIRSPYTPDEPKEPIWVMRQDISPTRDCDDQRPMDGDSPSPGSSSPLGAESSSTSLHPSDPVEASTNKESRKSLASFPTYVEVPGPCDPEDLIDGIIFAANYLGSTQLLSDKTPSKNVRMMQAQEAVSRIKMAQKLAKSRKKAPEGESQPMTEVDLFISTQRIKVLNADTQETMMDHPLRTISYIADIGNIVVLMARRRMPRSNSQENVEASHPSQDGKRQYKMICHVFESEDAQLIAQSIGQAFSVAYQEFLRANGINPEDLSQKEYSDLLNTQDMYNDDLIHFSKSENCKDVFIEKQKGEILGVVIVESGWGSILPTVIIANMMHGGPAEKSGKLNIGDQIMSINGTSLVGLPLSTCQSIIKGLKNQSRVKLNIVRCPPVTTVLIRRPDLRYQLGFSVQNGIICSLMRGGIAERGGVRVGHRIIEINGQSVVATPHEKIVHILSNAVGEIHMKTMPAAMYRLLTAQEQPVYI
Lysine-specific demethylase 4A, sequence (O75164 whole entry): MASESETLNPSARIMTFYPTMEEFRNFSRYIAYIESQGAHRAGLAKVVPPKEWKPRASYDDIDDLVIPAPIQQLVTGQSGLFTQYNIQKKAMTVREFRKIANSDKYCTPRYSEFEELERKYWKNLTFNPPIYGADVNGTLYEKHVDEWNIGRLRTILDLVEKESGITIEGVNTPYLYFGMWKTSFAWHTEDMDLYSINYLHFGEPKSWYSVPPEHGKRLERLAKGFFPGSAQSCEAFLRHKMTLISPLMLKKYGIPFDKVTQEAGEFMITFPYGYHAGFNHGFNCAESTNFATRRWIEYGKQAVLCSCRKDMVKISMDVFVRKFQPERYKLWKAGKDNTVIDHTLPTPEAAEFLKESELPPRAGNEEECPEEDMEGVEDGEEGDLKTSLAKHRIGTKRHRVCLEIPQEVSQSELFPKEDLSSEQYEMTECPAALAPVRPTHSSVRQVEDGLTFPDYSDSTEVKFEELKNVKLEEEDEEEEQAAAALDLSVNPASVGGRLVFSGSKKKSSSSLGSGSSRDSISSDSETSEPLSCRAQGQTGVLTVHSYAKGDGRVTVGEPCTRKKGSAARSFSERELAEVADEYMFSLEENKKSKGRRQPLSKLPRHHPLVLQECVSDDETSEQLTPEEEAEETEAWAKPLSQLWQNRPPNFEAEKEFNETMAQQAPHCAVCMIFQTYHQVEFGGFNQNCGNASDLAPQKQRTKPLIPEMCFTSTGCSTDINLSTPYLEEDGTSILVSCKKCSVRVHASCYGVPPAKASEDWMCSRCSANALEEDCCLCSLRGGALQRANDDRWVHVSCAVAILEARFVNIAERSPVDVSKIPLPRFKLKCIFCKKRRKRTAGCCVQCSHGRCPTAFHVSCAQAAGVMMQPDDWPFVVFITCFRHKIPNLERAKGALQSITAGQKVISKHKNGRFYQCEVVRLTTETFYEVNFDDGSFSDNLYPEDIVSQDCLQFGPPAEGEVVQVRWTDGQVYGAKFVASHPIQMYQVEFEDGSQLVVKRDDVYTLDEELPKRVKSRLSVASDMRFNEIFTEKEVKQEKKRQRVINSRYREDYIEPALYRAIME

Turning to `O=c1c(-c2nc3ccccc3s2)cccn1Cc1ccccc1`, the half-maximal effective concentration (EC50) in data set [1] is 7.37 µM (active). The AC50 in data set [2] was 56.9 µM (active).
Take `O=C(CSc1nnc(O)nc1O)Nc1ccc2c(c1)C(=O)c1ccccc1C2=O`: the concentration for half-maximal inhibition (IC50) in data set [3] is 1.68 µM (not active); in data set [4], > 56.8 µM (not active); in data set [5], > 50 µM (inactive).
Consider `CCC(=O)OC(Cc1ccccc1)(c1ccccc1)[C@H](C)CN(C)C` (stereo partly specified), for which the EC50 was > 92.5 µM (inactive) in data set [6], 86.4 µM (inactive) in data set [7] and > 92.5 µM (inactive) in [8].
As to `COc1c(N2CCN(C(S)=Nc3ccccc3F)C(C)C2)c(F)cc2c(=O)c(C(=O)O)cn(C3CC3)c12` (stereo unspecified), the AC50 in data set [9] is 0.518 µM (active). Also, the results for the EC50 in [10] and in data set [11] were 3.27 µM (active) and 2.24 µM (active), respectively.
Consider `COc1ccc(NC(S)=NC(NC(=O)/C=C/c2ccccc2)C(Cl)(Cl)Cl)cc1` (stereo unspecified), for which the “Absolute IC50 (CHOP)” value in data set [12] is less than 10 µM.
`C[N+](C)(C)C(Cc1ccccc1)C(=O)[O-]` (stereo unspecified): the IC50 in [13] is 4.35 µM (active); in data set [14] it was > 100 µM (inactive); in [15], 60.4 µM (active).
Take `Cc1ccc(C(=O)C2CCNCC2)cc1.Cl`: the AC50 entry in data set [16] and in data set [17] was “inconclusive” each time.
As for `COc1ccc2cc(C(=O)C3CCCN(C(=O)c4cc(=O)n(C)c(=O)n4C)C3)ccc2c1` (stereo unspecified), the AC50 in data set [18] was 10.4 µM (active); in data set [19] it was 14.2 µM (active).
For `CC(C)(C)OC(=O)CC(S(=O)(=O)c1ccccc1)S(=O)(=O)c1ccccc1`, the EC50 in data set [20] and in data set [21] was > 59.6 µM (inactive) each time.
Regarding `COc1cc(C(=O)O/N=C2/C=C(C)C(=O)C=C2C)cc(OC)c1OC`, the IC50 in data set [22] was 4.75 µM (active); in data set [23] it was > 80 µM (inactive).
With `CCn1nnc(NC(=O)c2cc3ccccc3o2)n1`, in data set [24], the AC50 was 48.3 µM (active).
As to `Cc1cc(/C=C2\SC(Nc3ccccc3)=NC2=O)c(C)n1-c1ccc(S(N)(=O)=O)cc1`, the EC50 in data set [6] was > 92.5 µM (inactive); in data set [7] it was 3.03 µM (active); in data set [8] it was > 92.5 µM (inactive). For the same compound, the 50% cytotoxic concentration (CC50) in [25] is 7.44 µM (active). Also, the IC50 in data set [26] is 1.66 µM (active).
In the case of `O=C(O)c1cc(O)c2c(c1)[C@@H]([C@H]1c3cc(C(=O)O)cc(O)c3C(=O)c3c(O[C@@H]4O[C@H](CO)[C@@H](O)[C@H](O)[C@H]4O)cccc31)c1cccc(O[C@@H]3O[C@H](CO)[C@@H](O)[C@H](O)[C@H]3O)c1C2=O` [SENNOSIDE B], in [24], the concentration at half-maximal activity (AC50) is 3.69 µM (active).
As for `COc1ccc(N2CSC3=C(C#N)C(c4cccc(OC)c4OC)CC(=O)N3C2)cc1` (stereo unspecified), the IC50 was 11.7 µM (active) in [4], 12.3 µM (active) in data set [27] and > 50 µM (inactive) in data set [5].
Take `O=C1CCCc2nc3c(cc21)C(O)Oc1c-3ccc2ccccc12` (stereo unspecified): the EC50 in [28] is > 120 µM (not active). In data set [2], the AC50 is 51 µM (active).
Take `COc1ccc(C2C(C(=O)O)c3ccccc3C(=O)N2C)cc1Br` (stereo unspecified): in [22], the IC50 is > 50 µM (inactive).
Consider `Cc1cccc(N(CC(=O)NC2CCCC2)C(=O)CCCC(=O)Nc2ccccn2)c1`, for which the AC50 in data set [9] is 25 µM (active).
For `CCOC(=O)[C@H]1[C@H]2COc3ccc(OC)cc3[C@H]2N2C(=O)CN(Cc3ccccc3)C(=O)[C@@]12C`, in data set [29], the concentration at half-maximal activity (AC50) was 54.9 µM (active).
As to `N#Cc1c(N)nc(SCC(=O)C23CC4CC(CC(C4)C2)C3)c(C#N)c1-c1ccc(Cl)cc1`, the “Absolute IC50 (CHOP)” value in data set [12] was found to be 10 µM. In addition, the EC50 in data set [30] was 2.94 µM (active); in data set [31], 8.07 µM (active); in data set [32] it was 2.47 µM (active).
In the case of `Cc1ccccc1C(=O)N1CCN(c2ccc([N+](=O)[O-])c(N3CCOCC3)c2)CC1`, the AC50 entry in data set [17] is “inconclusive”.
For `CCCn1ncc(CN2CCC(C(=O)Nc3cccc(-c4cccc(F)c4)c3)CC2)c1C`, the EC50 in data set [33] was 3.89 µM (active); in data set [34], 2.33 µM (active). Further, the IC50 in data set [13] is 0.902 µM (active); in [14], > 100 µM (inactive); in data set [15], 11.8 µM (active).
With `Fc1cccc(NC(S)=NCCCN2CCOCC2)c1`, the concentration at half-maximal activity (AC50) in data set [29] is 17.3 µM (active); in [16] (read-out: AC50), 17.8 µM (inconclusive); in [35], 17.8 µM (inconclusive).
